Measured values taken from patent US10131652B2, “Pyrimidinyloxy benzene derivatives as herbicides” (E. I. DU PONT DE NEMOURS AND COMPANY, priority 2014, dated 2018).

Key:
Assay type in all cases: in vivo
[1] = system: Italian ryegrass (Lolium multiflorum); test: Test B pre-/postemergence plant response
Outline: (§1)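 Greenhouse pots, loam/sand soil; compound formulated with surfactant in non-phytotoxic solvent. Preemergence soil spray and postemergence spray at 1–2 leaf stage run simultaneously. Visual injury, 0–100, about 10 days post-treatment.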

[2] = system: barnyardgrass (Echinochloa crus-galli); test: Test B pre-/postemergence plant response
Outline: as §1

corn (Zea mays) = test: Test B pre-/postemergence plant response
Outline: as §1

[3] = system: giant foxtail (Setaria faberii); test: Test B pre-/postemergence plant response
Outline: as §1

kochia (Kochia scoparia) [4] = test: Test B pre-/postemergence plant response
Outline: as §1

[5] = system: pigweed (Amaranthus retroflexus); test: Test B pre-/postemergence plant response
Outline: as §1

[6] = system: ragweed (common ragweed, Ambrosia elatior); test: Test B pre-/postemergence plant response
Outline: as §1

[7] = system: wheat (Triticum aestivum); test: Test B pre-/postemergence plant response
Outline: as §1

[8] = system: blackgrass (Alopecurus myosuroides); test: Test B postemergence plant response
Outline: (§2)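 Injury was assessed visually about 10 days after treatment, scored from 0 (no effect) to 100 (complete control) by comparison with untreated controls. Test chemicals had been applied postemergence to potted plants at the one- to two-leaf stage, grown in loam soil and sand in a greenhouse.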

[9] = system: galium (catchweed bedstraw, Galium aparine); test: Test B postemergence plant response
Outline: as §2

[10] = system: barnyardgrass (Echinochloa crus-galli); test: Test C flooded paddy test plant response; conditions: Flood, 250 g ai/ha; scale of 0 to 100 where 0 is no effect and 100 is complete control; 13 to 15 days
Outline: (§3)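 Plants grown to the 2-leaf stage; pots flooded to 3 cm above soil, test compounds applied directly to paddy water, depth maintained throughout. Greenhouse for 13 to 15 days, then visual rating versus controls on a 0–100 scale (0 no effect, 100 complete control).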

[11] = system: ducksalad (Heteranthera limosa); test: Test C flooded paddy test plant response; conditions: Flood, 250 g ai/ha; scale of 0 to 100 where 0 is no effect and 100 is complete control; 13 to 15 days
Outline: as §3

rice (Oryza sativa) = test: Test C flooded paddy test plant response; conditions: Flood, 250 g ai/ha; scale of 0 to 100 where 0 is no effect and 100 is complete control; 13 to 15 days
Outline: as §3

[12] = system: small-flower umbrella sedge (Cyperus difformis); test: Test C flooded paddy test plant response; conditions: Flood, 250 g ai/ha; scale of 0 to 100 where 0 is no effect and 100 is complete control; 13 to 15 days
Outline: as §3

[13] = system: chickweed (common chickweed, Stellaria media); test: Test D postemergence plant response; conditions: for Chickweed plant response rating: scale 0 to 100 (0 no effect, 100 complete control); for Plant response rating, Chickweed: scale 0 to 100, 0 no effect, 100 complete control
Outline: (§4)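 Plants grown in pots of peat moss–vermiculite medium with wetting agent and starter nutrients received postemergence applications of the formulated test chemicals at 2 to 18 cm height (1- to 4-leaf stage). After 13 to 15 days in a greenhouse, injury was scored visually against untreated controls, 0 (no effect) to 100 (complete control).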

kochia (Kochia scoparia) [14] = test: Test D postemergence plant response; conditions: for Kochia plant response rating: 31 g ai/ha, scale 0 to 100 (0 no effect, 100 complete control); for Plant response rating, Kochia: scale 0 to 100, 0 no effect, 100 complete control
Outline: as §4

wild oat (Avena fatua) = test: Test D postemergence plant response; conditions: for Oat, Wild plant response rating: 31 g ai/ha, scale 0 to 100 (0 no effect, 100 complete control); for Plant response rating, Oat, Wild: scale 0 to 100, 0 no effect, 100 complete control
Outline: as §4

[15] = 31 g ai/ha, Preemergence, 0 to 100 scale where 0 is no effect and 100 is complete control
[16] = 125 g ai/ha, postemergence, 0 to 100 scale, 0 no effect, 100 complete control
[17] = Postemergence, 31 g ai/ha, 0 to 100 scale (0 no effect, 100 complete control)
[18] = Preemergence, 125 g ai/ha, 0 to 100 scale (0 no effect, 100 complete control)
[19] = Postemergence, 500 g ai/ha, 0 to 100 scale (0 no effect, 100 complete control)
[20] = Preemergence, 500 g ai/ha, 0 to 100 scale where 0 is no effect and 100 is complete control

CC(F)(F)c1cc(-c2ccccc2Oc2ncc(Br)cn2)no1 [Compound 149]
100: Foxtail, Giant plant response rating [3, 18] | Plant response rating, Kochia (kochia (Kochia scoparia) [4]; [16]) | Plant response rating, Pigweed [5, 16] | Pigweed plant response rating [5, 18] | Plant response rating, Kochia (kochia (Kochia scoparia) [14]; 62 g ai/ha) | Plant response rating, Kochia (kochia (Kochia scoparia) [14]; 125 g ai/ha)
40: Plant response rating, Barnyardgrass [2, 16]
90: Plant response rating, Kochia (kochia (Kochia scoparia) [4]; [17]) | Plant response rating, Pigweed [5, 17] | Plant response rating, Galium [9, 16] | Plant response rating, Galium [9, 17] | Kochia plant response rating (kochia (Kochia scoparia) [14])
80: Kochia plant response rating (kochia (Kochia scoparia) [4]; [18]) | Plant response rating, Pigweed [5, 15] | Ducksalad plant response rating [11]
20: Plant response rating, Ryegrass, Italian [1, 16] | Plant response rating, Corn (corn (Zea mays); [16]) | Plant response rating, Kochia (kochia (Kochia scoparia) [4]; [15]) | Plant response rating, Ragweed [6, 16]
60: Plant response rating, Foxtail, Giant [3, 16] | Plant response rating, Blackgrass [8, 16] | Plant response rating, Chickweed ([13]; 125 g ai/ha)
10: Ryegrass, Italian plant response rating [1, 18] | Plant response rating, Barnyardgrass [2, 15] | Plant response rating, Barnyardgrass [2, 17] | Plant response rating, Corn (corn (Zea mays); [17]) | Plant response rating, Foxtail, Giant [3, 17] | Plant response rating, Ragweed [6, 17] | Plant response rating, Wheat [7, 16] | Plant response rating, Blackgrass [8, 17]
0: Plant response rating, Ryegrass, Italian [1, 15] | Plant response rating, Ryegrass, Italian [1, 17] | Plant response rating, Ragweed [6, 15] | Ragweed plant response rating [6, 18] | Plant response rating, Wheat [7, 17] | Barnyardgrass plant response rating [10] | Rice plant response rating (rice (Oryza sativa)) | Oat, Wild plant response rating (wild oat (Avena fatua)) | Plant response rating, Oat, Wild (wild oat (Avena fatua); 62 g ai/ha)
65: Sedge, Umbrella plant response rating [12]
30: Chickweed plant response rating ([13]; 31 g ai/ha) | Plant response rating, Chickweed ([13]; 62 g ai/ha)
5: Chickweed plant response rating ([13]; 16 g ai/ha) | Plant response rating, Oat, Wild (wild oat (Avena fatua); 125 g ai/ha)
70: Barnyardgrass plant response rating [2, 18] | Plant response rating, Foxtail, Giant [3, 15]

Cc1cc(-c2ccccc2Oc2ncc(Cl)cn2)no1 [Compound 153]
20: Plant response rating, Ryegrass, Italian [1, 20] | Plant response rating, Foxtail, Giant [3, 16] | Kochia plant response rating (kochia (Kochia scoparia) [4]; [18]) | Plant response rating, Ragweed [6, 16] | Chickweed plant response rating ([13]; 16 g ai/ha) | Chickweed plant response rating ([13]; 31 g ai/ha) | Plant response rating, Chickweed ([13]; 62 g ai/ha)
50: Plant response rating, Wheat [7, 19] | Kochia plant response rating (kochia (Kochia scoparia) [14])
90: Plant response rating, Foxtail, Giant [3, 19] | Plant response rating, Kochia (kochia (Kochia scoparia) [4]; [16]) | Plant response rating, Kochia (kochia (Kochia scoparia) [4]; [19]) | Plant response rating, Blackgrass [8, 19] | Plant response rating, Galium [9, 16]
30: Plant response rating, Ryegrass, Italian [1, 16] | Plant response rating, Corn (corn (Zea mays); [16]) | Foxtail, Giant plant response rating [3, 18] | Plant response rating, Wheat [7, 16]
70: Plant response rating, Barnyardgrass [2, 19]
25: Plant response rating, Chickweed ([13]; 125 g ai/ha)
60: Plant response rating, Ryegrass, Italian [1, 19] | Plant response rating, Kochia (kochia (Kochia scoparia) [14]; 125 g ai/ha)
100: Plant response rating, Barnyardgrass [2, 20] | Plant response rating, Foxtail, Giant [3, 20] | Plant response rating, Kochia (kochia (Kochia scoparia) [4]; [20]) | Plant response rating, Pigweed [5, 16] | Plant response rating, Pigweed [5, 19] | Pigweed plant response rating [5, 18] | Plant response rating, Pigweed [5, 20] | Plant response rating, Ragweed [6, 19] | Plant response rating, Galium [9, 19]
40: Plant response rating, Corn (corn (Zea mays); [19]) | Plant response rating, Ragweed [6, 20] | Plant response rating, Blackgrass [8, 16] | Plant response rating, Kochia (kochia (Kochia scoparia) [14]; 62 g ai/ha)
0: Ryegrass, Italian plant response rating [1, 18] | Plant response rating, Barnyardgrass [2, 16] | Barnyardgrass plant response rating [2, 18] | Ragweed plant response rating [6, 18] | Barnyardgrass plant response rating [10] | Ducksalad plant response rating [11] | Rice plant response rating (rice (Oryza sativa)) | Sedge, Umbrella plant response rating [12] | Oat, Wild plant response rating (wild oat (Avena fatua)) | Plant response rating, Oat, Wild (wild oat (Avena fatua); 62 g ai/ha) | Plant response rating, Oat, Wild (wild oat (Avena fatua); 125 g ai/ha)
